The numbers were not newly measured in patent US6703044B1, “Venlafaxine formulations” (priority 2002, dated 2004), which cites them from elsewhere.

Each structure is given as a SMILES string. Structures can show the parent of a compound that is named as a salt.

For this data set the following is noted: plural daily dosing regimen.

For `COc1ccc(C(CN(C)C)C2(O)CCCCC2)cc1` (centres unmarked) [venlafaxine hydrochloride, 1-[(2-dimethylamino)-1-(4-methoxyphenyl)ethyl] cyclohexanol], the patients experiencing nausea entry was “about forty five” and the “patients in whom vomiting occurs” value is reported as “about seventeen”.
